Data from the NIST ThermoML archive (doi:10.1016/j.jct.2005.09.004).

Key:
[1] = xn = mol fraction of the nth substance listed; settings: for surface tension liquid-gas: Drop volume; for mass density: 101 kPa, Liquid
[2] = refractive index (Na D-line) (dimensionless); φn = volume fraction of the nth substance listed; settings: 101 kPa, Liquid, Standard Abbe refractometry

C1COCCO1 [1,4-dioxane] + C1CCCCC1
Settings	mass density [kg/m3]	refractive index	surface tension liquid-gas [mN/m]
[1], 283.15 K, x1 = 0.0502	796.53	–	–
[1], 283.15 K, x1 = 0.0684	–	–	26.1
[1], 283.15 K, x1 = 0.0999	805.45	–	–
[1], 283.15 K, x1 = 0.1484	–	–	25.94
[1], 283.15 K, x1 = 0.1953	823.9	–	–
[1], 283.15 K, x1 = 0.2267	–	–	25.85
[1], 283.15 K, x1 = 0.2899	843.69	–	–
[1], 283.15 K, x1 = 0.2974	–	–	25.97
[1], 283.15 K, x1 = 0.3996	868.5	–	–
[1], 283.15 K, x1 = 0.4402	–	–	26.2
[1], 283.15 K, x1 = 0.5017	893.36	–	–
[1], 283.15 K, x1 = 0.5509	–	–	26.51
[1], 283.15 K, x1 = 0.6007	919.28	–	–
[1], 283.15 K, x1 = 0.6578	–	–	27.08
[1], 283.15 K, x1 = 0.699	946.87	–	–
[1], 283.15 K, x1 = 0.7394	–	–	27.97
[1], 283.15 K, x1 = 0.7956	976.06	–	–
[1], 283.15 K, x1 = 0.8115	–	–	29.3
[1], 283.15 K, x1 = 0.8994	1009.7	–	–
[1], 283.15 K, x1 = 0.9186	–	–	32
[1], 283.15 K, x1 = 0.9446	1025.26	–	–
[1], 283.15 K, x1 = 0.9738	–	–	33.93
[1], 298.15 K, x1 = 0.0535	782.54	–	–
[1], 298.15 K, x1 = 0.0684	–	–	25.1
[1], 298.15 K, x1 = 0.1053	791.71	–	–
[1], 298.15 K, x1 = 0.1484	–	–	25.24
[1], 298.15 K, x1 = 0.1998	809.79	–	–
[1], 298.15 K, x1 = 0.2267	–	–	25.29
[1], 298.15 K, x1 = 0.2974	–	–	25.38
[1], 298.15 K, x1 = 0.3003	830.58	–	–
[1], 298.15 K, x1 = 0.4026	853.43	–	–
[1], 298.15 K, x1 = 0.4402	–	–	25.72
[1], 298.15 K, x1 = 0.5006	876.98	–	–
[1], 298.15 K, x1 = 0.5509	–	–	26.07
[1], 298.15 K, x1 = 0.5971	901.85	–	–
[1], 298.15 K, x1 = 0.6578	–	–	26.62
[1], 298.15 K, x1 = 0.7028	931.22	–	–
[1], 298.15 K, x1 = 0.7394	–	–	27.1
[1], 298.15 K, x1 = 0.8089	963.35	–	–
[1], 298.15 K, x1 = 0.8115	–	–	28
[1], 298.15 K, x1 = 0.9038	994.24	–	–
[1], 298.15 K, x1 = 0.9186	–	–	30.26
[1], 298.15 K, x1 = 0.9485	1009.6	–	–
[1], 298.15 K, x1 = 0.9738	–	–	31.99
[1], 313.15 K, x1 = 0.0497	767.71	–	–
[1], 313.15 K, x1 = 0.0684	–	–	23.8
[1], 313.15 K, x1 = 0.102	776.79	–	–
[1], 313.15 K, x1 = 0.1484	–	–	24.23
[1], 313.15 K, x1 = 0.1944	794	–	–
[1], 313.15 K, x1 = 0.2267	–	–	24.46
[1], 313.15 K, x1 = 0.2926	813.99	–	–
[1], 313.15 K, x1 = 0.2974	–	–	24.71
[1], 313.15 K, x1 = 0.3973	837	–	–
[1], 313.15 K, x1 = 0.4402	–	–	25.23
[1], 313.15 K, x1 = 0.4969	860.64	–	–
[1], 313.15 K, x1 = 0.5509	–	–	25.7
[1], 313.15 K, x1 = 0.5992	886.73	–	–
[1], 313.15 K, x1 = 0.6578	–	–	26.2
[1], 313.15 K, x1 = 0.6988	914.22	–	–
[1], 313.15 K, x1 = 0.7394	–	–	26.62
[1], 313.15 K, x1 = 0.7966	943.29	–	–
[1], 313.15 K, x1 = 0.8115	–	–	27.13
[1], 313.15 K, x1 = 0.8972	975.49	–	–
[1], 313.15 K, x1 = 0.9186	–	–	28.62
[1], 313.15 K, x1 = 0.9505	993.41	–	–
[1], 313.15 K, x1 = 0.9738	–	–	30.17
[2], 283.15 K, φ1 = 0.0478	–	1.4305	–
[2], 283.15 K, φ1 = 0.075	–	1.42987	–
[2], 283.15 K, φ1 = 0.1601	–	1.42827	–
[2], 283.15 K, φ1 = 0.251	–	1.4271	–
[2], 283.15 K, φ1 = 0.3438	–	1.42629	–
[2], 283.15 K, φ1 = 0.4452	–	1.42577	–
[2], 283.15 K, φ1 = 0.5448	–	1.42557	–
[2], 283.15 K, φ1 = 0.649	–	1.42556	–
[2], 283.15 K, φ1 = 0.756	–	1.42585	–
[2], 283.15 K, φ1 = 0.8802	–	1.42643	–
[2], 283.15 K, φ1 = 0.9414	–	1.4268	–
[2], 298.15 K, φ1 = 0.0319	–	1.4226	–
[2], 298.15 K, φ1 = 0.0849	–	1.42144	–
[2], 298.15 K, φ1 = 0.1562	–	1.42012	–
[2], 298.15 K, φ1 = 0.2528	–	1.41893	–
[2], 298.15 K, φ1 = 0.3465	–	1.41821	–
[2], 298.15 K, φ1 = 0.4415	–	1.4178	–
[2], 298.15 K, φ1 = 0.5389	–	1.4177	–
[2], 298.15 K, φ1 = 0.651	–	1.41786	–
[2], 298.15 K, φ1 = 0.7604	–	1.41827	–
[2], 298.15 K, φ1 = 0.8701	–	1.41893	–
[2], 298.15 K, φ1 = 0.9439	–	1.41949	–
[2], 313.15 K, φ1 = 0.0381	–	1.41404	–
[2], 313.15 K, φ1 = 0.0816	–	1.41308	–
[2], 313.15 K, φ1 = 0.1625	–	1.41168	–
[2], 313.15 K, φ1 = 0.268	–	1.41055	–
[2], 313.15 K, φ1 = 0.3476	–	1.41002	–
[2], 313.15 K, φ1 = 0.4399	–	1.40973	–
[2], 313.15 K, φ1 = 0.5368	–	1.40971	–
[2], 313.15 K, φ1 = 0.6463	–	1.41003	–
[2], 313.15 K, φ1 = 0.7626	–	1.41069	–
[2], 313.15 K, φ1 = 0.8682	–	1.41143	–
[2], 313.15 K, φ1 = 0.9462	–	1.4121	–
